Reference: BindingDB's records for doi:10.1016/j.bmcl.2007.08.004 (Pfizer, 2007)

Target: T1, 3-hydroxy-3-methylglutaryl-coenzyme A reductase (Rattus norvegicus, UniProt P51639)
T1 sequence (P51639 whole entry): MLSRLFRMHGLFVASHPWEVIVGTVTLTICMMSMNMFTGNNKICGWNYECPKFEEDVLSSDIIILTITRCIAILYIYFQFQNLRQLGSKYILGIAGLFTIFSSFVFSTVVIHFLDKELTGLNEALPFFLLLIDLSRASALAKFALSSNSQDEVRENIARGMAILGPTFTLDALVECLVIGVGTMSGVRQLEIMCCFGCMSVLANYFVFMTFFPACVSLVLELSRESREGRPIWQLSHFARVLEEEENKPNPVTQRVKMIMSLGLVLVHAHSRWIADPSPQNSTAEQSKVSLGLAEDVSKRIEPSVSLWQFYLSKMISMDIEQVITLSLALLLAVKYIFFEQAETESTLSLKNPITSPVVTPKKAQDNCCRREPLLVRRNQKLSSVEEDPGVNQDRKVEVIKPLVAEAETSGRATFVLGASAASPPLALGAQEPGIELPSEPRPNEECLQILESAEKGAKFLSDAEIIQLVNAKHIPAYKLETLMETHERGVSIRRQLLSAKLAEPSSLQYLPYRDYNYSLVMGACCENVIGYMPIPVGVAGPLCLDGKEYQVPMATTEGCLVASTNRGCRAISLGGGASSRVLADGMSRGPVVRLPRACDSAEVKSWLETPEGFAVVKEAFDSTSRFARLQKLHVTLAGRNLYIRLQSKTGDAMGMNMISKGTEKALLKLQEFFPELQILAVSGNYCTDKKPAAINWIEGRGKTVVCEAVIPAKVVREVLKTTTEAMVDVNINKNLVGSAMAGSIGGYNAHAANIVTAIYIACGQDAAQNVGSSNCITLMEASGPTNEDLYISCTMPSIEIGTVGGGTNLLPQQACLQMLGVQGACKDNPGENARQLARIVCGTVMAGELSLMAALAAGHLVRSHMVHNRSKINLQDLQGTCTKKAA
Assay: HMG-CoA Reductase In Vitro Assay
Text: Assay for HMG-CoA reductase was based on the conversion of isotopically labeled HMG-CoA to mevalonic acid using rat liver microsomes as enzyme source. The product, [14C]-mevalonic acid was lactonized and separated from excess substrate via an anion ion exchange resin column, and radioactivity was counted on a scintillation counter.

- IC50: 10 nM
SMILES: CC(C)c1c(C(=O)N2CCc3ccccc3C2)nn(-c2ccc(F)cc2)c1OC[C@@H](O)C[C@@H](O)CC(=O)O [(3R,5S)-6-{[1-(4-fluorophenyl)-4-(propan-2-yl)-3-(1,2,3,4-tetrahydroisoquinolin-2-ylcarbonyl)-1H-pyrazol-5-yl]oxy}-3,5-dihydroxyhexanoic acid]
